Here are results for 3 compounds from patent US20170333421A1, “Population Pharmacokinetics of Liposomal Irinotecan” (IPSEN BIOPHARM LTD., priority 2016, published 2017).

Structures can show the parent of a compound that is named as a salt. Where two headings read alike, the source gives them in different places.

The term half-life denotes how long it takes for the measured level to halve. What is called AUC(0-inf) is total exposure, with the tail of the curve extrapolated. Read a low AUC(0-inf) as less exposure. Broadly, the Cmax is the highest concentration seen after dosing.

For one series, the system named is Colorectal Cancer. The following applies: cited from earlier work.
The nature of series [1]: NAPOLI-1 observed 5-FU concentration. The following applies: human, in vivo, intravenous; read-out: 5-FU estimated half-life after the end of infusion.
The next series relates to pancreatic cell lines. Briefly: CellTiter-Glo cell viability, pancreatic cell panel. It counts as cell-based. As to the method:
(§1) In vitro efficacy study was done using CellTiter-Glo® Luminescent Cell Viability Assay (Promega) with Corning Cat #3707 384well White Clear bottom plates. Cells were plated (1000 cells/well) in 384 well format and allowed to incubate @ 37 C for 24 hours. Monotherapy drugs were added at the 24 hr time point and then allowed to incubate @ 37 C for 24 hours. At the 48 hr time point the drugs in media were removed, washed with PBS, and fresh media was added. Cells were then allowed to incubate @ 37 C for 72 hours. At the 120 hr time point media was removed and CellTiter-Glo (CTG) reagent was added (1:1 ratio with PBS). Plate was read by luminometer (Envision Multilabel reader). More details of this assay can be found in Accelrys Notebook ELN as EXP-15-AC2111.
(§2) All cell lines had been adapted to and were maintained in RPMI with 10% fetal bovine serum and supplemented with penicillin/streptomycin (Invitrogen).
(§3) Data was analyzed using an in-house algorithm developed using Matlab (Mathworks, Natick MA). In summary, average CTG mean luminescent values were computed for 4 replicate wells. Outlier detection was performed by computing the coefficient of variation (CV>20%) and outliers were removed from the average. CTG values were normalized based on a control non-treated well. Drug concentration in microMolar (uM) was log transformed prior to fitting to a 4 parameter logistic curve.
(§4) Data quality control was performed to ensure that the concentration range is optimal according to these rules: (1) if the lowest concentration kills more than 70% of the cells the concentration range is deemed too potent (2) if the highest concentration kills less than 30% of the cells, the concentration range is deemed low or the cell line is too resistant. Additionally, goodness of the fit was evaluated using R^2 and R^2<0.9 is flagged as a bad fit. Statistical analysis was performed using JMP (SAS Institute Inc., NC).
(§5) Pancreatic cell lines were cultured to sub confluent state in 384 well plates prior to incubation with varying doses of SN-38 for 24 hours. Additions 72 hours of culture were performed prior to CTG assessment. Every well was run in 4 replicates, and the entire experiment was run in four different plates. The compared results from the four separate experiments show the reproducibility of the cytotoxic effects of SN-38.
For orientation: Cellular ATP, detected with luciferase, serves as a proxy for viable cell number.

In another series the test system is Panc1. Briefly: CellTiter-Glo cell viability. It counts as cell-based. As to the method:
as §1, §2, §3, §4, §5

The test system of another series is Capan-2. The experiment in a line: CellTiter-Glo cell viability. It counts as cell-based. The method, then:
as §1, §2, §3, §4, §5

The subject of another series is L3.3. Briefly: CellTiter-Glo cell viability. It counts as cell-based. The settings on record: for IC50: L3.3, 24 h exposure + 72 h recovery. As to the method:
as §1, §2, §3, §4, §5

For the next series, the system named is HPAFII. Briefly: CellTiter-Glo cell viability. The format is cell-based. The following applies: for IC50: Homo sapiens, HPAF-II, 24 h exposure + 72 h recovery. As to the method: as §1, §2, §3, §4, §5
The next series relates to CFPAC1. The experiment in a line: CellTiter-Glo cell viability. The following applies: for IC50: Homo sapiens, CFPAC-1. The format is cell-based. The method, then:
as §1, §2, §3, §4, §5

Another series has as its system L3.6pL. The experiment in a line: CellTiter-Glo cell viability. The format is cell-based. The settings on record: for IC50: Homo sapiens, 24 h exposure + 72 h recovery. As to the method: as §1, §2, §3, §4, §5
In another series the test system is PL45. Briefly: CellTiter-Glo cell viability. The format is cell-based. The settings on record: for IC50: PL45, 24 h exposure + 72 h recovery. The method, then:
as §1, §2, §3, §4, §5

In another series the test system is SW1990. Briefly: CellTiter-Glo cell viability. It counts as cell-based. The following applies: for IC50: Homo sapiens, SW1990, 24 h exposure + 72 h recovery. The method, then:
as §1, §2, §3, §4, §5

In a further series the test system is Hs766t. Briefly: CellTiter-Glo cell viability. The format is cell-based. The following applies: for IC50: 24 h exposure + 72 h recovery. As to the method:
as §1, §2, §3, §4, §5

The next series has as its system SU8686. The experiment in a line: CellTiter-Glo cell viability. The format is cell-based. The following applies: for IC50: Homo sapiens, SU.86.86, SU8686, 24 h exposure + 72 h recovery. The method, then:
as §1, §2, §3, §4, §5

For a further series, the system named is Colo357. Briefly: CellTiter-Glo cell viability. It counts as cell-based. The settings on record: for IC50: Homo sapiens, Colo357, 24 h exposure + 72 h recovery. As to the method: as §1, §2, §3, §4, §5
In another series the test system is Aspc1. Briefly: CellTiter-Glo cell viability. The format is cell-based. The settings on record: for IC50: Homo sapiens, Aspc1, 24 h exposure + 72 h recovery. As to the method: as §1, §2, §3, §4, §5
Another series deals with Miapaca2. Briefly: CellTiter-Glo cell viability. The following applies: for IC50: Homo sapiens, MIA PaCa-2. It counts as cell-based. The method, then:
as §1, §2, §3, §4, §5

The next series has as its system BxPC3. The experiment in a line: CellTiter-Glo cell viability. The settings on record: for IC50: Homo sapiens, BXPC-3, BxPC3, 24 h exposure + 72 h recovery. It counts as cell-based. The method, then: as §1, §2, §3, §4, §5
The test system of a further series is Panc6.03. The experiment in a line: CellTiter-Glo cell viability. It counts as cell-based. The following applies: for IC50: Panc6.03, 24 h exposure + 72 h recovery. As to the method: as §1, §2, §3, §4, §5
Another series relates to KP4. The experiment in a line: CellTiter-Glo cell viability. The settings on record: for IC50: Homo sapiens, KP-4, KP4, 24 h exposure + 72 h recovery. The format is cell-based. As to the method: as §1, §2, §3, §4, §5
Another series is described as follows: clinical. The settings on record: human, in vivo, 300 mg/m2.
The mark [2] stands for this setting: Kohne 2013, continuous infusion.
Setting [3] is: n 2, read-out: IC50 Log(μM) mean (converted).
[4] abbreviates: n 3, read-out: IC50 Log(μM) mean (converted).
Setting [5] is: n 4, read-out: IC50 Log(μM) mean (converted).

In the case of `O=c1[nH]cc(F)c(=O)[nH]1` [5-FU, 5-fluorouracil], the “Median OS (m)” value in the series on Colorectal Cancer (Kohne 2013, bolus 463-531 mg/m^2/week) is reported as “nrd”; with Colorectal Cancer (Kohne 2013, continuous infusion 800-3500 mg/m^2/week, N 797), “nrd”. Further, the “OS 3 y” value in the series on Colorectal Cancer (Kohne 2013, bolus) is 85%; with Colorectal Cancer (setting [2]), 85%. Moreover, the “OS 5 y” value with Colorectal Cancer (Kohne 2013, bolus) was 79%; in the series with Colorectal Cancer (setting [2]), 79%. Moreover, in the series on Colorectal Cancer (Kohne 2013 PETACC-2, BL 370-425 mg/m^2/d for 5 d q4w, N 804), the “Overall Survival HR, bolus vs continuous infusion (ref)” value is 0.96. In addition, the “OS HR across different 5-FU dose intensities and dose administrations” value in the series on Colorectal Cancer (meta-analysis, did not affect OS) is reported as 0.96-1.11. Also, in series [1], the half-life is 8 to 14 min.
Consider `CCc1c2c(nc3ccc(O)cc13)-c1cc3c(c(=O)n1C2)COC(=O)[C@]3(O)CC` [SN-38], for which, in the series on pancreatic cell lines, the “Tumor cell kill rates averaged across all cell lines” value worked out at 90%. In the series with pancreatic cell lines (24 h SN-38, additional 72 h culture), the “decrease in cell viability for most cell lines” value was “around 90%”. For the same compound, the IC50 is 0.001 to 100 nM in the series on pancreatic cell lines (24 hours exposure, recovery period of 72 h, read-out: IC50 range across all pancreatic cell lines); 0.03 ng/mL with pancreatic cell lines (basis of the uSN38 threshold, read-out: median IC50 in in-vitro pancreatic cell lines); 0.0138 µM with Panc1 (Homo sapiens, PANC-1, Panc1, 24 h exposure + 72 h recovery, n 4, read-out: IC50 Log(μM) mean (converted)); 0.0138 µM with Panc1 (Homo sapiens, PANC-1, Panc1, 24 h exposure + 72 h recovery, read-out: IC50(nM) mean); 0.0138 µM in the series on Panc1 (Panc1, 24 h exposure + 72 h recovery, read-out: IC50(nM) mean); 20.4 nM with Capan-2 (Capan-2, 24 h exposure + 72 h recovery, read-out: IC50(nM) mean). Moreover, the IC50 with Capan-2 (Homo sapiens, Capan-2, Capan-2, 24 h exposure + 72 h recovery, n 3, read-out: IC50 Log(μM) mean (converted)) is 20.4 nM; with Capan-2 (Homo sapiens, Capan-2, Capan-2, 24 h exposure + 72 h recovery, read-out: IC50(nM) mean), 20.4 nM; in the series on L3.3 (setting [3]) it was 0.00204 nM; with L3.3 (read-out: IC50(nM) mean) it was 0.002 nM; in the series with HPAFII (setting [4]), 0.00204 µM; with HPAFII (read-out: IC50(nM) mean), 0.00204 µM. The IC50 was 0.00316 nM with CFPAC1 (CFPAC1, 24 h exposure + 72 h recovery, n 2, read-out: IC50 Log(μM) mean (converted)); 0.0032 nM in the series with CFPAC1 (CFPAC1, 24 h exposure + 72 h recovery, read-out: IC50(nM) mean); 0.0032 nM in the series with CFPAC1 (CFPAC1, read-out: IC50 concentration); 0.00282 nM in the series with L3.6pL (setting [3]); 0.0028 nM with L3.6pL (read-out: IC50(nM) mean); 0.00355 nM in the series on PL45 (setting [3]). In addition, the IC50 was 0.0035 nM in the series with PL45 (read-out: IC50(nM) mean); 0.0871 nM with SW1990 (setting [5]); 0.0871 nM in the series on SW1990 (read-out: IC50(nM) mean); 63.1 nM with Hs766t (read-out: IC50(nM) mean); 63.1 nM in the series on Hs766t (Hs766T, n 2, read-out: IC50 Log(μM) mean (converted)); 63.1 nM in the series on Hs766t (Hs766T, read-out: IC50(nM) mean). In addition, the IC50 was 0.000692 µM in the series with SU8686 (setting [3]); 0.000692 µM with SU8686 (read-out: IC50(nM) mean); 0.0617 nM in the series with Colo357 (setting [3]); 0.0617 nM in the series on Colo357 (read-out: IC50(nM) mean); 0.00398 µM with Aspc1 (setting [4]); 0.00398 µM in the series on Aspc1 (read-out: IC50(nM) mean). For the same compound, the IC50 is 0.0042 nM in the series on Miapaca2 (MiaPaCa2, read-out: IC50 concentration); 0.00417 nM in the series with Miapaca2 (Miapaca2, 24 h exposure + 72 h recovery, n 3, read-out: IC50 Log(μM) mean (converted)); 0.0042 nM in the series on Miapaca2 (Miapaca2, 24 h exposure + 72 h recovery, read-out: IC50(nM) mean); 0.017 nM with BxPC3 (setting [3]); 0.017 nM with BxPC3 (read-out: IC50(nM) mean); 0.00115 µM in the series with Panc6.03 (setting [5]). In addition, the IC50 in the series with Panc6.03 (read-out: IC50(nM) mean) was 0.00115 µM; with KP4 (setting [3]), 0.00794 nM; in the series with KP4 (read-out: IC50(nM) mean), 0.0079 nM. In addition, the “Tumor Cell Kill (%) mean” value turned out to be 89.54% with Panc1 (Panc1); 94.61% in the series with Capan-2 (Capan-2); 93.01% in the series on L3.3 (L3.3); 93.24% with HPAFII; 84.74% in the series with CFPAC1 (CFPAC1); 95.18% in the series on L3.6pL. Also, the “Tumor Cell Kill (%) mean” value in the series with PL45 (PL45) was 92.16%; in the series with SW1990 (SW1990), 91.92%; in the series with Hs766t it was 86.41%; in the series on SU8686 (SU8686), 95.82%; in the series on Colo357 (Colo357), 94.47%; with Aspc1 (Aspc1) it was 91.61%. In addition, the “Tumor Cell Kill (%) mean” value in the series on Miapaca2 (Miapaca2) was determined as 91.23%; in the series on BxPC3 (BxPC3), 77.37%; in the series on Panc6.03 (Panc6.03) it was 87.68%; in the series with KP4 (KP4) it was 86.62%.
In “clinical”, `CCc1c2c(nc3ccc(OC(=O)N4CCC(N5CCCCC5)CC4)cc13)-c1cc3c(c(=O)n1C2)COC(=O)[C@]3(O)CC` [irinotecan HCl, (S)-4,11-diethyl-3,4,12,14-tetrahydro-4-hydroxy-3,14-dioxo1H-pyrano[3′,4′:6,7] indolizino[1,2-b]quinolin-9-yl-[1,4′bipiperidine]-1′-carboxylate] showed an AUC(0-inf) of 24700 ng·h/mL and a Cmax of 4100 ng/mL.
